Experimental data reported in patent publication US12606528B2, “Methods and materials for inhibiting NF-kB activity” (University of Pittsburgh - Of the Commonwealth System of …, priority 2019, dated 2026).
Read-outs that look alike come from different tables or passages of the source.

Legend:
NF-κB = NF-κB assay: THP1-NF-κB-LUC cells, LPS-stimulated secreted luciferase; assay type: cell-based; conditions: THP1-NF-κB-LUC cells, read-out: IC50 (NF-κB assay)
Procedure, shortened: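 THP1-NF-κB-LUC cells (25k/well) were pretreated with compounds for 2 h, then stimulated with LPS (10 ng/mL) for 18 h. Secreted luciferase was measured and normalized to vehicle, and IC50 was fitted from the concentration series.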

TNF release = experiment: TNF assay: TNF release from LPS-stimulated human PBMCs (TNF ELISA); assay type: cell-based; conditions: PBMC, read-out: IC50 (TNF assay)
Description: 25k THP1-NF-κB-LUC cells were dispensed into 384 well plate (per well). Cells were treated with compounds with various concentrations for 2 hours before addition of LPS (10 ng/mL) for 18 hours. Secreted luciferase activity were measured using quant-luc reagents (1 bag of luc reagent dilute to 40 mL, use 10 μL per well). Data were normalized to vehicle control and graphed. Compound IC50 towards inhibiting NF-κB were determined through Prism. Similarly, 10k human PBMCs cells were cultured in 384 well plate (per well). Cells were treated with compounds with various concentrations for 2 hours before addition of LPS (10 ng/ml) for 18 hours, and supernatants were collected and assayed for TNF ELISA. Compound IC50 towards inhibiting TNF release were determined through Prism. • Activity: “+”>10 μM, “++”>1 μM and <10 μM, “+++”>0.1 μM and <1 μM, “++++”<0.1 μM.

[1] = compounds 2 hours before LPS (10 ng/mL) for 18 hours, secreted luciferase
[2] = human PBMCs, compounds 2 hours before LPS (10 ng/ml) for 18 hours, supernatant TNF ELISA
[3] = LPS-stimulated human PBMCs, TNF ELISA

| Structure (SMILES) | IC50 (NF-κB; [1]) [µM] | IC50 (TNF release; [2]) [µM] | IC50 (NF-κB; LPS-stimulated) [µM] | IC50 (TNF release; [3]) [µM] |
| --- | --- | --- | --- | --- |
| O=c1c(S(=O)(=O)c2ccc(F)c(F)c2)c[nH]c2cccnc12 [BC19121] | > 10 | > 10 | – | – |
| CC(C)[S+]([O-])c1sc(-c2ccc(Cl)cc2)nc1S(=O)(=O)c1ccc(Cl)cc1 (stereo not shown) [BC19480] | – | – | > 10 | > 10 |
| O=S(=O)(c1ccc(Cl)cc1)c1nc(-c2ccc(Cl)cc2)sc1S(=O)(=O)C1CCCCC1 [BC19623] | – | – | > 10 | > 10 |
| COc1ccc(NS(=O)(=O)c2cc(S(C)(=O)=O)cc3c2OCC(=O)N3)cc1 [BC19485] | < 0.1 | > 10 | – | – |
| CC1Oc2cc(S(=O)(=O)Nc3cccc(Cl)c3)c(Cl)cc2NC1=O (stereo not shown) [BC19715] | < 0.1 | 1 to 10 | – | – |
| COCCNC(=O)Nc1ccc2nc(-c3ccc(F)cc3)c(-c3ccc(F)cc3)nc2c1 [BC19565] | – | – | < 0.1 | > 10 |
| CNC(=O)c1ccc2nc(-c3cccs3)c(-c3ccc(F)cc3)nc2c1 [BC19119] | – | – | < 0.1 | < 0.1 |
| O=C(c1ccc2nc(-c3ccc(F)cc3)c(-c3ccc(F)cc3)nc2c1)N1CCN(CCO)CC1 [BC19513] | – | – | < 0.1 | > 10 |
| CCS(=O)(=O)c1cc2c(c(S(=O)(=O)Nc3ccc(F)c(F)c3)c1)OCC(=O)N2 [BC19421] | < 0.1 | > 10 | – | – |
| CC(C)CS(=O)(=O)c1sc(-c2cccc(F)c2)nc1S(=O)(=O)c1ccc(Cl)cc1 [BC19477] | – | – | > 10 | > 10 |
| CCNC(=O)Nc1ccc2nc(-c3ccc(F)cc3)c(-c3ccc(F)cc3)nc2c1 [BC19563] | – | – | < 0.1 | > 10 |
| CC(C)[S+]([O-])c1sc(-c2cccnc2)nc1S(=O)(=O)c1ccc(Cl)cc1 (stereo not shown) [BC19725] | – | – | > 10 | > 10 |
| O=S1(=O)CCn2c(-c3ccccc3)nc(S(=O)(=O)c3ccc(F)cc3)c21 [BC19542] | – | – | > 10 | > 10 |
| CC#CC(=O)Nc1ccc2nc(-c3ccc(F)cc3)c(-c3ccc(F)cc3)nc2c1 [BC19314] | – | – | < 0.1 | 1 to 10 |
| CC(C)C[S+]([O-])c1sc(C2CCCCC2)nc1S(=O)(=O)c1ccc(Cl)cc1 (stereo not shown) [BC19637] | – | – | > 10 | > 10 |
| CCC1Oc2cc(S(=O)(=O)Nc3ccc(F)c(F)c3)c(Cl)cc2NC1=O (stereo not shown) [BC19735] | < 0.1 | > 10 | – | – |
| Cc1ccc(-c2nc(S(=O)(=O)c3ccc(Br)cc3)c(S(C)(=O)=O)o2)cc1 [BC19128] | – | – | 1 to 10 | 0.1 to 1 |
| Cc1ccc(NS(=O)(=O)c2cc(S(C)(=O)=O)cc3c2OCC(=O)N3)cc1 [BC19488] | < 0.1 | > 10 | – | – |
| COc1ccc(NS(=O)(=O)c2cc(Br)cc3c2OCC(=O)N3)cc1Cl [BC19171] | < 0.1 | > 10 | – | – |
| CN(C)c1cccc2cc(S(=O)(=O)c3ccccc3)cnc12 [BC19326] | > 10 | 1 to 10 | – | – |
| COc1ccc(NS(=O)(=O)c2cc(Br)cc3c2OC(CC(C)C)C(=O)N3)cc1Cl (stereo not shown) [BC19779] | 0.1 to 1 | 1 to 10 | – | – |
| CS(=O)(=O)c1sc(-c2cccc(F)c2)nc1S(=O)(=O)c1ccc(F)cc1 [BC19596] | – | – | 0.1 to 1 | 1 to 10 |

| Structure (SMILES) | IC50 (NF-κB; [1]) [µM] | IC50 (TNF release; [2]) [µM] | IC50 (NF-κB; LPS-stimulated) [µM] | IC50 (TNF release; [3]) [µM] |
| --- | --- | --- | --- | --- |
| Fc1ccc(-c2nc3ccc(-c4nnco4)cc3nc2-c2ccc(F)cc2)cc1 [BC19250] | – | – | < 0.1 | > 10 |
| Cn1nnnc1-c1ccc2nc(-c3ccc(F)cc3)c(C(F)(F)F)nc2c1 [BC19152] | – | – | > 10 | > 10 |
| O=C1NCCOc2c1cc(Br)cc2S(=O)(=O)Nc1ccc(F)c(F)c1 [BC19551] | – | – | 0.1 to 1 | > 10 |
| CC1Oc2c(cc(Cl)cc2S(=O)(=O)Nc2ccc(F)c(F)c2)NC1=O (stereo not shown) [BC19699] | < 0.1 | > 10 | – | – |
| Cc1ccc(Cl)cc1NS(=O)(=O)c1cc2c(cc1Cl)NC(=O)CO2 [BC19162] | > 10 | > 10 | – | – |
| CCCS(=O)(=O)c1sc(-c2ccccc2F)nc1S(=O)(=O)c1ccc(Cl)cc1 [BC19628] | – | – | > 10 | > 10 |
| CC(C)CC1Oc2c(cc(Br)cc2S(=O)(=O)Nc2ccc(F)cc2Cl)NC1=O (stereo not shown) [BC19777] | < 0.1 | > 10 | – | – |
| CCC1Oc2cc(S(=O)(=O)Nc3cccc(F)c3)c(Br)cc2NC1=O (stereo not shown) [BC19220] | 0.1 to 1 | > 10 | – | – |
| CCCS(=O)(=O)c1sc(-c2ccc3ccccc3c2)nc1S(=O)(=O)c1ccc(Cl)cc1 [BC19674] | – | – | 1 to 10 | > 10 |
| O=S(=O)(c1ccc(Cl)cc1)c1nc(-c2ccccc2F)sc1[S+]([O-])CC1CC1 (stereo not shown) [BC19632] | – | – | > 10 | > 10 |
| O=c1c(S(=O)(=O)c2ccc(F)cc2)c(O)[nH]c2ncccc12 [BC19323] | > 10 | > 10 | – | – |
| CCc1cccc(NS(=O)(=O)c2cc(Br)cc3c2OCC(=O)N3)c1 [BC19180] | < 0.1 | > 10 | – | – |
| O=S(=O)(NCc1ccccn1)c1ccc2nc(-c3ccc(F)cc3)c(-c3ccc(F)cc3)nc2c1 [BC19559] | – | – | < 0.1 | > 10 |
| O=S(=O)(CC1CC1)c1sc(-c2ccc(Cl)cc2)nc1S(=O)(=O)c1ccc(Cl)cc1 [BC19530] | – | – | 1 to 10 | 1 to 10 |
| CS(=O)(=O)c1sc(C2CCCCC2)nc1S(=O)(=O)c1ccc(Cl)cc1 [BC19641] | – | – | > 10 | > 10 |
| CS(=O)(=O)c1ccc(-c2nc3ccc(-c4ncco4)cc3nc2-c2ccc(F)cc2)s1 [BC19248] | – | – | > 10 | > 10 |
| CN1CCN(C(=O)c2ccc3nc(-c4cccs4)cnc3c2)CC1 [BC19191] | – | – | > 10 | > 10 |
| COCCS(=O)(=O)c1[nH]c(-c2ccccc2)nc1S(=O)(=O)c1ccc(Cl)cc1 [BC19468] | – | – | 1 to 10 | > 10 |
| COc1ccc(Cl)c2c(=O)c(S(=O)(=O)c3ccc(F)c(F)c3)c[nH]c12 [BC19199] | 0.1 to 1 | > 10 | – | – |
| C[S+]([O-])c1sc(-c2ccccc2F)nc1S(=O)(=O)c1ccc(Cl)cc1 (stereo not shown) [BC19626] | – | – | 1 to 10 | 1 to 10 |
| Cc1ccc(NS(=O)(=O)c2cc3c(cc2Cl)NC(=O)C(C)O3)cc1F (stereo not shown) [BC19700] | < 0.1 | > 10 | – | – |
| CC(C)CC1Oc2cc(S(=O)(=O)Nc3ccc(F)cc3Cl)c(Br)cc2NC1=O (stereo not shown) [BC19778] | > 10 | > 10 | – | – |

| Structure (SMILES) | IC50 (NF-κB; [1]) [µM] | IC50 (TNF release; [2]) [µM] | IC50 (NF-κB; LPS-stimulated) [µM] | IC50 (TNF release; [3]) [µM] |
| --- | --- | --- | --- | --- |
| Cn1cc(-c2ccc3nc(-c4ccc(F)cc4)c(-c4ccc(F)cc4)nc3c2)nn1 [BC19148] | – | – | < 0.1 | > 10 |
| Cn1cc(-c2cnc3nc(-c4ccc(F)cc4)c(-c4ccc(F)cc4)nc3c2)nn1 [BC19401] | – | – | < 0.1 | > 10 |
| CCc1cccc(NS(=O)(=O)c2cc3c(cc2Br)N(C)C(=O)C(CC)O3)c1 (stereo not shown) [BC19916] | 1 to 10 | > 10 | – | – |
| CN1CCN(C(=O)c2ccc3nc(-c4cccs4)c(-c4ccc(F)cc4)nc3c2)CC1 [BC19109] | – | – | 0.1 to 1 | > 10 |
| CC(C)CC1Oc2c(cc(Br)cc2S(=O)(=O)Nc2cccc(F)c2)NC1=O (stereo not shown) [BC19773] | < 0.1 | > 10 | – | – |
| CC(C)CC1Oc2cc(S(=O)(=O)Nc3cccc(Cl)c3)c(Br)cc2NC1=O (stereo not shown) [BC19776] | 0.1 to 1 | > 10 | – | – |
| COc1ccc(S(=O)(=O)c2cnccc2O)cc1 [BC19457] | > 10 | > 10 | – | – |
| O=C1CCOc2c(cc(Br)cc2S(=O)(=O)Nc2cccc(Cl)c2)N1 [BC19650] | – | – | < 0.1 | > 10 |
| CCS(=O)(=O)c1cc2c(c(S(=O)(=O)Nc3ccc(C(C)C)cc3)c1)OCC(=O)N2 [BC19493] | < 0.1 | > 10 | – | – |
| COCCCNC(=O)Nc1ccc2nc(-c3ccc(F)cc3)c(-c3ccc(F)cc3)nc2c1 [BC19574] | – | – | 0.1 to 1 | > 10 |
| CCC[S+]([O-])c1sc(-c2ccccc2)nc1S(=O)(=O)c1ccc(Cl)cc1 (stereo not shown) [BC19472] | – | – | > 10 | > 10 |
| CC1Oc2c(cc(Br)cc2S(=O)(=O)Nc2ccc(Cl)cc2)N(C)C1=O (stereo not shown) [BC19791] | < 0.1 | > 10 | – | – |
| COCC[S+]([O-])c1[nH]c(-c2ccccc2)nc1S(=O)(=O)c1ccc(Cl)cc1 (stereo not shown) [BC19420] | – | – | > 10 | > 10 |
| CN1CCN(c2ccc3nc(-c4ccc(F)cc4)c(-c4ccc(F)cc4)nc3c2)CC1 [BC19510] | – | – | 0.1 to 1 | > 10 |
| COc1cccc(-c2nc(S(=O)(=O)c3ccc(Cl)cc3)c([S+]([O-])CC3CC3)[nH]2)c1 (stereo not shown) [BC19462] | – | – | 1 to 10 | > 10 |
| CN1CCN(C(=O)c2ccc3nc(-c4ccc(F)cc4F)c(-c4ccccc4)nc3c2)CC1 [BC19405] | – | – | 0.1 to 1 | > 10 |
| CC(C)NS(=O)(=O)c1cc2c(cc1Cl)NC(=O)C(C)O2 (stereo not shown) [BC19207] | > 10 | > 10 | – | – |
| CCc1ccc(NS(=O)(=O)c2cc(Br)cc3c2OC(CC)C(=O)N3C)cc1 (stereo not shown) [BC19931] | < 0.1 | 1 to 10 | – | – |
| COc1ccc(NS(=O)(=O)c2cc(Br)cc3c2OCCNC3=O)cc1 [BC19606] | – | – | 1 to 10 | > 10 |
| Cc1ccc(NS(=O)(=O)c2cc3c(cc2Cl)NC(=O)CO3)cc1Cl [BC19165] | 0.1 to 1 | > 10 | – | – |
| C[S+]([O-])c1oc(-c2cccc(F)c2)nc1S(=O)(=O)c1ccc(Cl)cc1 (stereo not shown) [BC19342] | – | – | < 0.1 | < 0.1 |
